Converted amounts (≈) assume the structure as drawn.
Tests used:
Format in all cases: physicochemical
[1] = Chemical stability of aza-T-dCyd in solutions (RT, 50° C., 80° C.), HPLC; settings: for purity in solution (chemical stability): RT for 24 h, and 50° C. or 80° C. for 1 hour, HPLC
Method: The chemical stability of aza-T-dCyd was determined. Aza-T-dCyd was prepared in 1,4-dioxane, acetonitrile (ACN), isopropanol (IPA), and methyl ethyl ketone. Each solution was divided over 3 vials and incubated at RT for 24 hours, at 50° C. for 1 hour, or at 80° C. for 1 hour. The solutions were analyzed by HPLC at the start and after the incubation time.

[2] = Thermodynamic solubility, shake-flask method; settings: for solubility at 24 h: organic solvent or mixture, thermodynamic from solid, RT
Method: The thermodynamic solubility of aza-T-dCyd was determined according to the shake-flask method. Suspensions of the crystalline aza-T-dCyd were prepared in 25 neat solvents. Small aliquots of solvent were added to the aza-T-dCyd until thin suspensions were obtained. Subsequently, the samples were equilibrated at RT under continuous stirring for 24 hours. After equilibration, a small aliquot of mother liquor was filtered and analyzed by HPLC. The concentration of the solute was determined against a calibration curve of the aza-T-dCyd. The solubility values of aza-T-dCyd at room temperature are listed in Table 3 according to the US Pharmacopeia's classification (USP29). The aza-T-dCyd was soluble in high boiling point solvents such as DMF and DMA. Generally, aza-T-dCyd was slightly or very slightly soluble in polar solvents and practically insoluble in non-polar solvents.

[3] = Stability tests at 5° C.: mother liquors and solid phases of suspensions, HPLC; settings: for chemical stability (purity over time) / purity decreased over time to: 5° C.; for chemical stability (purity over time): 70 hours; for purity decreased over time to: about 70 hours, area %
Method: Additional stability tests were performed at 5° C. Suspensions of the starting material were prepared in water, acetonitrile, ethanol (EtOH), and isopropanol. The mother liquors of the suspensions and the water solution were analyzed by HPLC at regular intervals over 3 days.
The solid phases from the suspensions were also evaluated for purity after 72 h. […] Therefore, the aza-T-dCyd appeared chemically stable in the solid phase after 70-hour incubation at 5° C.

SMILES: Nc1ncn([C@H]2C[C@H](O)[C@@H](CO)S2)c(=O)n1 [aza-T-dCyd, 5-Aza-4′-thio-2′-deoxycytidine]
- purity in solution (chemical stability) ([1]; 1,4-dioxane): > 95%
- chemical stability in solution ([1]; IPA, heated at 80° C. (1 hour) or stored at RT for 24 h): degraded significantly
- purity in solution (chemical stability) ([1]; acetonitrile): > 95%
- chemical stability in solution ([1]; methyl ethyl ketone, 1 hour at 50° C. and 80° C., 24 hour at RT): significant decomposition
- USP29 class. ([2]; 2,2,2,-trifluoroethanol, Methanol (rows r7-r8), class wraps over two lines: Slightly Soluble): Slightly
- USP29 class. ([2]; Anisole to Toluene (rows r20-r33), class wraps over two lines: Practically insoluble): Practically
- USP29 class. ([2]; Dimethylformamide, N,N-dimethylacetamide (rows r5-r6)): Soluble
- USP29 class. ([2]; Ethanol to 1,2-dimethoxyethane (rows r9-r19), class wraps over three lines: Very Slightly Soluble): Very
- solubility at 24 h ([2]; 1,2-dimethoxyethane): 100 µg/mL (≈ 409 µM)
- solubility at 24 h ([2]; 1,4-dioxane): 300 µg/mL (≈ 1230 µM)
- solubility at 24 h ([2]; 1-propanol): 400 µg/mL (≈ 1640 µM)
- solubility at 24 h ([2]; 2,2,2,-trifluoroethanol): 4100 µg/mL (≈ 16800 µM)
- solubility at 24 h ([2]; 2-butanol): 300 µg/mL (≈ 1230 µM)
- solubility at 24 h ([2]; 2-methyltetrahydrofuran): 100 µg/mL (≈ 409 µM)
- solubility at 24 h ([2]; 2-propanol): 400 µg/mL (≈ 1640 µM)
- solubility at 24 h ([2]; 4-methyl-2-pentanone): 100 µg/mL (≈ 409 µM)
- solubility at 24 h ([2]; Acetone): 200 µg/mL (≈ 819 µM)
- solubility at 24 h ([2]; Acetonitrile): 100 µg/mL (≈ 409 µM)
- solubility at 24 h ([2]; Anisole): < 100 µg/mL
- solubility at 24 h ([2]; Chloroform): < 100 µg/mL
- solubility at 24 h ([2]; Cumene): < 100 µg/mL
- solubility at 24 h ([2]; Cyclohexane): < 100 µg/mL
- solubility at 24 h ([2]; Dichloromethane): < 100 µg/mL
- solubility at 24 h ([2]; Diethyl ether): < 100 µg/mL
- solubility at 24 h ([2]; Dimethylformamide): 65800 µg/mL (≈ 269000 µM)
- solubility at 24 h ([2]; Ethanol): 800 µg/mL (≈ 3270 µM)
- solubility at 24 h ([2]; Ethyl acetate): < 100 µg/mL
- solubility at 24 h ([2]; Ethyl formate): < 100 µg/mL
- solubility at 24 h ([2]; Heptane): < 100 µg/mL
- solubility at 24 h ([2]; Isopropyl acetate): < 100 µg/mL
- solubility at 24 h ([2]; Methanol): 3600 µg/mL (≈ 14700 µM)
- solubility at 24 h ([2]; Methyl ethyl ketone): < 100 µg/mL
- solubility at 24 h ([2]; N,N-dimethylacetamide): 60000 µg/mL (≈ 246000 µM)
- solubility at 24 h ([2]; Tetrahydrofuran): 100 µg/mL (≈ 409 µM)
- solubility at 24 h ([2]; Toluene): < 100 µg/mL
- solubility at 24 h ([2]; p-Xylene): < 100 µg/mL
- solubility at 24 h ([2]; tert-butyl methyl ether): < 100 µg/mL
- chemical stability (purity over time) ([3]; IPA, mother liquor): remained stable
- purity decreased over time to ([3]; acetonitrile, mother liquor): 84%
- chemical stability (purity over time) ([3]; ethanol, mother liquor): remained stable
- Purity of Aza-T-dCYd after 72 h at 5° C. ([3]; solid phase from ACN suspension): 98.8 area %
- Purity of Aza-T-dCYd after 72 h at 5° C. ([3]; solid phase from EtOH suspension): 99.8 area %
- Purity of Aza-T-dCYd after 72 h at 5° C. ([3]; solid phase from IPA suspension): 99.4 area %
- purity of solids recovered from the suspensions ([3]; solid phases from the four solvents after 72 h at 5° C.): about 99 % (area %)
- purity decreased over time to ([3]; water solution): 78%

— US11447472B2, “Polymorophs of 5-aza-4′-thio-2′-deoxycytidine” (Southern Research Institute, priority 2020, dated 2022)
